Results published in patent US20240199635A1, “TETRAHYDROTHIENO PYRIDINE DERIVATIVES AS DDRS INHIBITORS” (CHIESI FARMACEUTICI S.P.A., priority 2021, published 2024).

Assays:
[1] = target: T1, DDR1 (Homo sapiens (Human), UniProt Q08345); test: DDR1 binding assay (LanthaScreen Europium Kinase Binding assay); conditions: potency class, read-out: Ki DDR1
Outline: (§1)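 TR-FRET tracer displacement: compounds incubated 1 h at room temperature with 5 nM DDR1 (20 nM Tracer 178) or 5 nM DDR2 (10 nM Tracer 178), 2 nM Eu-anti-GST antibody, HEPES pH 7.5 buffer. 665/615 nm ratio read; IC50 from 4-parameter fit, converted to Ki by Cheng-Prusoff.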

[2] = target: T2, DDR2 (Homo sapiens (Human), UniProt Q16832); test: DDR2 binding assay (LanthaScreen Europium Kinase Binding assay); conditions: potency class, read-out: Ki DDR2
T2 sequence (Q16832 22-855): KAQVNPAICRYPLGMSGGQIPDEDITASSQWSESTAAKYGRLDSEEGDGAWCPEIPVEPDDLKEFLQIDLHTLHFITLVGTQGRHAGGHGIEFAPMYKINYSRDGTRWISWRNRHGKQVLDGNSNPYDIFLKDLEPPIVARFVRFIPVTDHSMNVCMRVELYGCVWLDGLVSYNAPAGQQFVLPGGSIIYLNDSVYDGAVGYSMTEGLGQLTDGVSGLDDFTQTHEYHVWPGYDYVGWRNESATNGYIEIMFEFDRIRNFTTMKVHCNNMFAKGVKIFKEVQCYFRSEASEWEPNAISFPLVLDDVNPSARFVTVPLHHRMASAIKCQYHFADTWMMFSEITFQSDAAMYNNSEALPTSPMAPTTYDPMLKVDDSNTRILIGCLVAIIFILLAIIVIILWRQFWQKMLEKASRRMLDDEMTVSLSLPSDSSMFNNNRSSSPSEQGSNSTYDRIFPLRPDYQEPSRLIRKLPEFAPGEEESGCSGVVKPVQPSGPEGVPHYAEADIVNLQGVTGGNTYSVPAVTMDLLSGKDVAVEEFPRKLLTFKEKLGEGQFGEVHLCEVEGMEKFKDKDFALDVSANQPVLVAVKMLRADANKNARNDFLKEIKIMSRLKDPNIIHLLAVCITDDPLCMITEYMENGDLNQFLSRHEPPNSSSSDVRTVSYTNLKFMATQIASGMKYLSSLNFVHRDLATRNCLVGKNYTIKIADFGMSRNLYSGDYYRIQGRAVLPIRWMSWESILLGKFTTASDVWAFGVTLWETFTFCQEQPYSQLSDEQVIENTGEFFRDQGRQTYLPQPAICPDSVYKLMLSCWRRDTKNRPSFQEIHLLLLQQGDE
Outline: as §1

[3] = target: T1, DDR1; test: DDR1 cell based assay (PathHunter U2OS DDR1 assay); conditions: U2OS-DDR1 cells, Type II Collagen stimulation, potency class
Outline: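 Receptor activation measured by enzyme-fragment complementation luminescence in engineered U2OS cells. Compound added 30 min before overnight challenge with 20 μg/ml bovine collagen II; data scaled between vehicle and collagen-stimulated controls, IC50 derived by four-parameter variable-slope fitting.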

[4] = target: T2, DDR2; test: DDR2 cell based assay (phospho-ELISA in HEK293T-DDR2 recombinant cells); conditions: DDR2 phosphorylation, Type II Collagen stimulation, potency class, read-out: IC50DDR2
Protocol: The inhibition of DDR2 phosphorylation by compounds was evaluated in HEK293T-DDR2 recombinant cells by phospho-ELISA assay. Briefly, HEK293T-DDR2 cells were seeded in poly-D-lysine-coated 24-well plates at a density of 250,000 cells/well and incubated for 1.5 hours at 37° C. and 5% CO2 in DMEM+10% FBS. After that, the medium was changed to serum-free DMEM and cells were incubated for 3 hours. Then. test compounds were added at different concentrations 30 minutes before stimulation with bovine Type II Collagen at […] for further 3 hours. For DDR2 phospho-ELISA assay (DuoSet IC Human Phospho-DDR2; R&D Systems), protein extracts were obtained by adding 60 μl/well of lysis buffer prepared according to the manufacturer's instructions. Protein concentration in the samples was determined by BCA assay and the levels of phospho-DDR2 were determined following R&D Systems indications. Raw data were normalized to maximal inhibition control (0% for normalization) and positive control (100% for normalization; cells treated with 20 μg/ml collagen II) and IC50 parameters were calculated in GraphPad Prism 8.0 software, using sigmoidal dose-response curve fitting with variable slope.

T1 sequence (Q08345 19-913): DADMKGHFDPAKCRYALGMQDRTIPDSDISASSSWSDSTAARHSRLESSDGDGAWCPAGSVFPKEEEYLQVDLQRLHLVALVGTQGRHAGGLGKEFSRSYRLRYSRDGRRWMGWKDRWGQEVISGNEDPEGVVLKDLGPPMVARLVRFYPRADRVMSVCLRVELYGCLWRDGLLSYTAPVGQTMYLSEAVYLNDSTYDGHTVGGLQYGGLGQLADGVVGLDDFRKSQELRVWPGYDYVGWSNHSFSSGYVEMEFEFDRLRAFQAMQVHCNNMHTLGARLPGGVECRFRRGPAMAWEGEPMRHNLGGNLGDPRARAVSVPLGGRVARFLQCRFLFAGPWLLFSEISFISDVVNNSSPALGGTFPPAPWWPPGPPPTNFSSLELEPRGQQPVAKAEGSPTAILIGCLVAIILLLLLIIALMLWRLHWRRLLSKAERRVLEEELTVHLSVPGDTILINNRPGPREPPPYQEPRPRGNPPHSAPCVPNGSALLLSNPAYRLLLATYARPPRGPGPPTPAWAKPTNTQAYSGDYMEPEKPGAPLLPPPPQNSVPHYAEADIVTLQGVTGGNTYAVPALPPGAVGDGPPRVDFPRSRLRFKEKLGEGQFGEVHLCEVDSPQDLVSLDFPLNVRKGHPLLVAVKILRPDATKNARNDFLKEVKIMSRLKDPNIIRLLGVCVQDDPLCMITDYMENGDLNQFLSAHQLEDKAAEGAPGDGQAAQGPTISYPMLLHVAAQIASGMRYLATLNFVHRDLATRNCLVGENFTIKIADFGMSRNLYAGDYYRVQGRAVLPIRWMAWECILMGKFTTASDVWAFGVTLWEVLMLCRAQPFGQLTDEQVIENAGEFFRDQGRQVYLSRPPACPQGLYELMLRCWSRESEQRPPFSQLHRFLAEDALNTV

Row | Ki [1] [µM] | Ki [2] [µM] | IC50 [3] [µM] | IC50 [4] [µM] | Structure (SMILES)
1 | < 0.025 | < 0.025 | < 0.025 | < 0.025 | CC(C)(C)c1cc(NC(=O)c2csc3c2CCN(Cc2cnc(N)nc2)C3)no1 [Example 64, 6-((2-aminopyrimidin-5-yl)methyl)-N-(5-(tert-butyl)isoxazol-3-yl)-4,5,6,7-tetrahydrothieno[2,3-c]pyridine-3-carboxamide]
2 | < 0.025 | < 0.025 | < 0.025 | < 0.025 | Nc1nccnc1CN1CCc2c(C(=O)Nc3cc(F)cc(C(F)(F)F)c3)csc2C1 [Example 46, 6-((3-aminopyrazin-2-yl)methyl)-N-(3-fluoro-5-(trifluoromethyl)phenyl)-4,5,6,7-tetrahydrothieno[2,3-c]pyridine-3-carboxamide]
3 | < 0.025 | < 0.025 | < 0.025 | < 0.025 | Cn1cc(Nc2ncc(CN3CCc4c(C(=O)Nc5cccc(C(F)(F)F)c5)csc4C3)cn2)cn1 [Example 18, 6-((2-((1-methyl-1H-pyrazol-4-yl)amino)pyrimidin-5-yl)methyl)-N-(3-(trifluoromethyl)phenyl)-4,5,6,7-tetrahydrothieno[2,3-c]pyridine-3-carboxamide]
4 | < 0.025 | < 0.025 | 0.025 to 0.05 | 0.025 to 0.05 | CC(F)(F)c1cccc(NC(=O)c2csc3c2CCN(Cc2cnc(N)nc2)C3)c1 [Example 58, 6-((2-aminopyrimidin-5-yl)methyl)-N-(3-(1,1-difluoroethyl)phenyl)-4,5,6,7-tetrahydrothieno[2,3-c]pyridine-3-carboxamide]
5 | < 0.025 | < 0.025 | 0.025 to 0.05 | < 0.025 | O=C(Nc1cccc(C(F)(F)F)c1)c1csc2c1CCN(Cc1cncnc1)C2 [Example 5, 6-(pyrimidin-5-ylmethyl)-N-(3-(trifluoromethyl)phenyl)-4,5,6,7-tetrahydrothieno[2,3-c]pyridine-3-carboxamide]

Continued, compound first:

Row | Structure (SMILES) | Ki [1] [µM] | Ki [2] [µM] | IC50 [3] [µM] | IC50 [4] [µM]
6 | Cn1cc(Nc2ncc(CN3CCc4c(C(=O)Nc5cc(C(C)(C)C)nn5C)csc4C3)cn2)cn1 [Example 16, N-(3-(tert-butyl)-1-methyl-1H-pyrazol-5-yl)-6-((2-((1-methyl-1H-pyrazol-4-yl)amino)pyrimidin-5-yl)methyl)-4,5,6,7-tetrahydrothieno[2,3-c]pyridine-3-carboxamide] | < 0.025 | < 0.025 | < 0.025 | < 0.025
7 | O=C(Nc1cc(F)cc(C(F)(F)F)c1)c1csc2c1CCN(Cc1cncnc1)C2 [Example 4, N-(3-fluoro-5-(trifluoromethyl)phenyl)-6-(pyrimidin-5-ylmethyl)-4,5,6,7-tetrahydrothieno[2,3-c]pyridine-3-carboxamide] | < 0.025 | < 0.025 | < 0.025 | < 0.025
8 | CN(C)CC(=O)Nc1cncc(CN2CCc3c(C(=O)Nc4cccc(C(F)(F)F)c4)csc3C2)c1 [Example 31, 6-((5-(2-(dimethylamino)acetamido)pyridin-3-yl)methyl)-N-(3-(trifluoromethyl)phenyl)-4,5,6,7-tetrahydrothieno[2,3-c]pyridine-3-carboxamide] | < 0.025 | < 0.025 | 0.025 to 0.05 | 0.025 to 0.05
9 | Nc1ncc(CN2CCc3c(C(=O)Nc4cc(F)cc(C(F)(F)F)c4)csc3C2)cn1 [Example 38, 6-((2-aminopyrimidin-5-yl)methyl)-N-(3-fluoro-5-(trifluoromethyl)phenyl)-4,5,6,7-tetrahydrothieno[2,3-c]pyridine-3-carboxamide] | < 0.025 | < 0.025 | < 0.025 | < 0.025
10 | CC(=O)Nc1ncc(CN2CCc3c(C(=O)Nc4cc(F)cc(C(F)(F)F)c4)csc3C2)cn1 [Example 39, 6-((2-acetamidopyrimidin-5-yl)methyl)-N-(3-fluoro-5-(trifluoromethyl)phenyl)-4,5,6,7-tetrahydrothieno[2,3-c]pyridine-3-carboxamide] | < 0.025 | < 0.025 | 0.025 to 0.05 | 0.025 to 0.05
11 | Cn1nc(NC(=O)c2csc3c2CCN(Cc2cnc(N)nc2)C3)cc1C(C)(C)C [Example 63, 6-((2-aminopyrimidin-5-yl)methyl)-N-(5-(tert-butyl)-1-methyl-1H-pyrazol-3-yl)-4,5,6,7-tetrahydrothieno[2,3-c]pyridine-3-carboxamide] | < 0.025 | < 0.025 | < 0.025 | < 0.025
12 | Nc1ncncc1CN1CCc2c(C(=O)Nc3cc(F)cc(C(F)(F)F)c3)csc2C1 [Example 45, 6-((4-aminopyrimidin-5-yl)methyl)-N-(3-fluoro-5-(trifluoromethyl)phenyl)-4,5,6,7-tetrahydrothieno[2,3-c]pyridine-3-carboxamide] | < 0.025 | < 0.025 | < 0.025 | < 0.025
13 | CC(=O)Nc1ccc(CN2CCc3c(C(=O)Nc4cc(F)cc(C(F)(F)F)c4)csc3C2)cn1 [Example 42, 6-((6-acetamidopyridin-3-yl)methyl)-N-(3-fluoro-5-(trifluoromethyl)phenyl)-4,5,6,7-tetrahydrothieno[2,3-c]pyridine-3-carboxamide] | < 0.025 | < 0.025 | < 0.025 | < 0.025
